Tests used:
MDA-MB-231 = test: MTT cytotoxic/antiproliferative activity, 72 h; assay type: cell-based, human; conditions: for IC50: MDA-MB-231, MTT, 72 h
MET = molecular target: T1, MET (Homo sapiens, UniProt P08581); test: Western blot of MET phosphorylation state; assay type: cell-based; conditions: NCI-H2228 lysates, IC50 concentrations, 24 h
T1 construct: Western blot analysis of the phosphorylation state of ALK and MET; endogenous in cells; host or cells: NCI-H2228
Description: Whereas the signals of pALK and pMET are decreased in the presence of the tested compounds, the overall amount of ALK and MET is not markedly changed.
NCI-H2228 cells were seeded in 6-well plates at a density of 2 × 10^5 cells/well and incubated overnight. […] The cells were then harvested and lysed using RIPA lysis buffer supplemented with protease and phosphatase inhibitors as recommended by the manufacturer. Protein extracts were resolved with SDS-PAGE, transferred to a PVDF membrane, and the respective proteins were detected with specific antibodies (anti-phosphoALK, anti-ALK, anti-phosphoMET, anti-MET, and anti-GADPH) and HRP-conjugated secondary antibodies. The signals were obtained with SignalFire ECL Reagent and recorded with an Amersham680 reader.

CT26 or NCI-H2228 cells = test: Release of ATP (CLSII bioluminescence assay); assay type: cell-based; conditions: IC50 concentrations, 20 h
Description: ATP release was analyzed using the CLSII bioluminescence assay kit (Roche) after treatment of CT26 or NCI-H2228 cells with the tested compounds at concentrations corresponding to their respective IC50 values (Figure A).
CT26 and NCI-H2228 cells were seeded in 48-well plates at a density of 5 × 10^4 cells/well and grown overnight. […] Then 50 μL of supernatant from the wells was transferred into a 96-well white plate (Corning) and processed using an ATP bioluminescence assay kit CLSII following the manufacturer’s instructions. Luminescence was measured with a SPARK multimode reader (TECAN).

[1] = Stability in RPMI cell culture medium with serum (HPLC); conditions: serum
Description: Two conditions must be met for Pt(IV) complexes to serve as true prodrugs: they must remain stable in biological fluids and should be activated by reduction within the cancer cells to release the bioactive components in their active form, thereby facilitating the rapid onset of cytotoxic effects. […] The reduction in the area of the HPLC peak of the compounds was monitored as a function of time, and their half-lives were calculated (Table and Figures S26,S27).
The stock solutions were prepared by dissolving the compounds in a 1:9 (v/v) mixture of DMSO and RPMI media. After preparation, the samples were injected and stored at 37 °C throughout the experiment. The final concentration of the complexes used for the experiment is 50–60 μM.

[2] = Reduction by L-ascorbic acid in phosphate buffer (RP-HPLC); assay type: physicochemical
Description: The reduction of Pt(IV) complexes was performed by reacting with 10 equiv of L-ascorbic acid in 10% DMSO in 100 mM phosphate buffer (pH 7.4) at 37 °C, and was monitored by reverse-phase analytical HPLC. The half-lives for the reduction were calculated from the decreasing peak areas as a function of time.
The reduction of the Pt(IV) complexes was performed in the presence of 10 equiv of L-ascorbic acid (AA) in phosphate buffer (100 mM, pH 7.4) at 37 °C using reverse-phase analytical HPLC. […] The platinum complexes were dissolved in 10% DMSO with 50% MeOH and added to 100 mM phosphate buffer (pH 7.4). […] The samples were injected and stored at 37 °C throughout the experiment.

[3] = system: hepatocyte-like cells (HLC); test: Cytotoxicity in hepatocyte-like cells, sulphorhodamine B assay; assay type: cell-based; conditions: hepatocyte-like cells from human pluripotent cells
Description: Growth inhibition activity in cancer cell lines was compared with the activity to inhibit the proliferation of normal (noncancerous) cells, namely MRC-5, IMR-90, hTERT-HPNE, and MCF10A cells. Selectivity indexes (SI) were calculated as (IC50 in noncancerous cells)/(average IC50 in cancer cells). […] We further assessed the toxicity of several of the compounds in hepatocyte-like cells (HLC) generated from human pluripotent cells.
Cytotoxicity in hepatocyte-like cells (HLC). STEMdiff Hepatocyte Kit was used to generate HLC from human pluripotent stem cells. Cytotoxicity of several of the tested compounds in HLC was evaluated using the sulphorhodamine B assay.

NCI-H2228 cells [4] = test: Cell cycle distribution (PI, flow cytometry); assay type: cell-based, human; conditions: NCI-H2228, 2 × IC50, 48 h
Description: The alterations in cell cycle profiles caused by the tested agents in NCI-H2228 cells may offer insight into their anticancer mechanism. To examine these changes, we utilized flow cytometry to analyze the cells treated with the representative agents (Figure and Figure S40).
It appears that the G2/M arrest is a common phenomenon in the crizotinib-containing group of NCI-H2228 cells under the conditions used.
Following 48 h of incubation, the cells were harvested and fixed with 70% ethanol. The next day, the cells were washed with PBS (2×) and stained with propidium iodide (PI) (50 μg mL^–1 with 100 μg mL^–1 RNase A) in Vindel’s solution (10 mM Tris-Cl (pH = 8.0), 10 mM NaCl, 0.1% Triton X-100) for 30 min at 37 °C. Cell cycle distribution was analyzed using flow cytometry (FACS Verse), 3 × 10^4 cells were analyzed following the exclusion of cell aggregates, and the data was analyzed with FCS Express 7 (DeNovo software, Glendale, CA). The results are expressed as MEAN from two experiments.

NCI-H2228 cells [5] = test: Cell death mode (Annexin V/PI, flow cytometry); assay type: cell-based, human; conditions: NCI-H2228, 3 × IC50, 48 h
Source text: Flow cytometric analysis was used to assess the mode of cell death induced in NCI-H2228 cells by the tested complexes. Annexin V staining was employed to recognize the externalization of phosphatidyl serine, a feature considered an apoptotic marker. Propidium iodide (PI) was used to stain cells with compromised cell membranes (a sign of necrosis). Staurosporine was included in the experiment as a positive control for apoptosis. […] Apoptosis appears to be the leading mode of cell death in the entire group of tested compounds, with a varying distribution of cell populations between early and late apoptosis.
Staurosporine (4 μM; 2 h) was used as a positive control of apoptosis. The cells were then harvested with trypsin and stained with Annexin V-Pacific Blue conjugate (1:20 dilution) and PI (10 μg mL^–1) for 15 min. The samples were analyzed with flow cytometry (FACS Verse), 3 × 10^4 cells were analyzed following the exclusion of cell aggregates, and the data was analyzed with FCS Express 7 (DeNovo software, Glendale, CA).

CT26 cells = test: Phagocytosis of treated CT26 cells by J774.A1 macrophages; assay type: cell-based, murine; conditions: CT26 treated at IC50 for 24 h, cocultivated 4 h, J774.A1:CT26 1:2
Description: Then, the cells in the samples were stained with CellTracker (red CMTPX; Thermo Fisher Scientific). At the same time, J774.A1 macrophages were stained with CellTracker (green CMFDA; ThermoFisher Scientific). […] Following the coincubation, the cells were harvested and analyzed with flow cytometry (BD FACS Verse). Total cell count was normalized to 3 × 10^4 macrophages. The data were analyzed with FCS Express 7 (DeNovo software; Glendale, CA).

T1 sequence (P08581 25-1390): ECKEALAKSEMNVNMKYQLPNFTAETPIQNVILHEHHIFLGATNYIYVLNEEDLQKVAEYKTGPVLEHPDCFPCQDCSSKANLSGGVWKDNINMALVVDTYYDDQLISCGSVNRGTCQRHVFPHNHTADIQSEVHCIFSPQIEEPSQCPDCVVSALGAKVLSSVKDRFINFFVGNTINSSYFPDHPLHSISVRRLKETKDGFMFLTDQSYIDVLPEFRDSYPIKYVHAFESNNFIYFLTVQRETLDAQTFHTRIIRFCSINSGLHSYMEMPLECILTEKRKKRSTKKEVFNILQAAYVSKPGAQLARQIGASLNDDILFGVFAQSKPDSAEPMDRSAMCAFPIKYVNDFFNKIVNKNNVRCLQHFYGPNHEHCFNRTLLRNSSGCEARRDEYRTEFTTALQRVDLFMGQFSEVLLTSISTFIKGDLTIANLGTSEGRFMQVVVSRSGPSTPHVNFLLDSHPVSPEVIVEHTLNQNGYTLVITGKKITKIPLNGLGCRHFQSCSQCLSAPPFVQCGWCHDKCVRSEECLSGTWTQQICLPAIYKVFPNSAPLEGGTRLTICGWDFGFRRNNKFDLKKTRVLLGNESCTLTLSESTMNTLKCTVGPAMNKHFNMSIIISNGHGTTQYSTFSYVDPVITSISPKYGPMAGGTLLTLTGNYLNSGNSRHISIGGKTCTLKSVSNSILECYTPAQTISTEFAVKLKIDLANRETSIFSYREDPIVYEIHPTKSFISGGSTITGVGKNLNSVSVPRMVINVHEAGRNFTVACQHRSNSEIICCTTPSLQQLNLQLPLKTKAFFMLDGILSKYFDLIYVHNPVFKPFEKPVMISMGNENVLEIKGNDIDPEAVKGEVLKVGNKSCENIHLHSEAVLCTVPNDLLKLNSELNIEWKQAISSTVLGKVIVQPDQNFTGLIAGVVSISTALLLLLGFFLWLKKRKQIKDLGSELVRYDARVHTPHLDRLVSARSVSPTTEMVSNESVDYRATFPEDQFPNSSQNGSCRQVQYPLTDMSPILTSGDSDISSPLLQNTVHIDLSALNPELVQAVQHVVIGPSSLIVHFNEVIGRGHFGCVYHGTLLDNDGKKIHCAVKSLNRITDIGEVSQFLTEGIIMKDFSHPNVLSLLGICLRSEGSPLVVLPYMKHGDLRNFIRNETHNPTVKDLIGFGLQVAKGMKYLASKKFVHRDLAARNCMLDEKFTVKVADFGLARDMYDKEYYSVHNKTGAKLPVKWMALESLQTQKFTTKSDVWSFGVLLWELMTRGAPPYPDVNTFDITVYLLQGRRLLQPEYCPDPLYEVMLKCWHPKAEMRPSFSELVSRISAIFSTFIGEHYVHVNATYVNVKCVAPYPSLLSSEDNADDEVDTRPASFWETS

Structure (SMILES) | IC50 (MDA-MB-231) [µM] | phosphorylation of MET (MET) | ATP released to the medium relative to nontreated cells (CT26 or NCI-H2228 cells) | stability half-life (t 1/2) [1] [h] | reduction half-life (t 1/2) ([2]; 10 equiv L-ascorbic acid, 10% DMSO in 100 mM phosphate buffer pH 7.4, 37 °C) [h] | IC50 [3] [µM] | cell cycle arrest (NCI-H2228 cells [4]) | mode of cell death (NCI-H2228 cells [5]) | double-stained (phagocytotic) population (CT26 cells) | solubility in phosphate buffer ([2]; 100 mM phosphate buffer pH 7.4) | IC50(MIX)/IC50(complex) (MDA-MB-231; MDA-MB-231, MIX3/3 or MIX7/7)
N.N.[Cl][Pt][Cl] [cisPt, cisplatin, reference compound] | 27 ± 4 | no visible effect | did not induce a significant release of ATP | – | – | – | – | – | – | – | –
CC(Oc1cc(-c2cnn(C3CCN(C(=O)[O][Pt]([Cl])([Cl])[O]C(=O)CCCc4ccccc4)CC3)c2)cnc1N)c1c(Cl)ccc(F)c1Cl.N.N (centres unmarked) [compound 3, ctc-[Pt(NH3)2(crizotinib)(PhB)Cl2]] | 0.5 ± 0.07 | – | – | 42 | 7.7 | 5 ± 1 | induced arrest in the G2/M phase | apoptotic phenotype | significantly increased | – | –
Cc1cc(Nc2ncc(Cl)c(Nc3ccccc3S(=O)(=O)C(C)C)n2)c(OC(C)C)cc1C1CCN(C(=O)[O][Pt]([Cl])([Cl])[O]C(=O)CCCc2ccccc2)CC1.N.N [compound 7, ctc-[Pt(NH3)2(ceritinib)(PhB)Cl2]] | 0.22 ± 0.08 | inhibit the phosphorylation | 2.7 fold | 37 | – | 4 ± 1 | majority of the population in cells treated with 7 was in the S phase | apoptotic phenotype | significantly increased | poor solubility | 4.1
